According to US8552066B2, “Modified chalcone compounds as antimitotic agents” (Arizona Biomedical Research Commission, priority 2006, dated 2013):
Like-named read-outs stand apart in the source and are kept apart here.

Key:
MIA PaCa-2 cells = experiment: Growth inhibition assay in pancreatic cancer cell lines (MTS); format: cell-based, human
Protocol: (§1) Growth inhibition assays for determination of GI50 values in pancreatic cancer cell lines were typically carried out essentially as follows. Compounds were individually tested at various concentrations against cancer cells grown in cell culture. The cell viability was determined by use of a standard assay that employs 3-(4,5-dimethylthiazol-2-yl)-5-(3-carboxymethoxyphenyl)-2-(4-sulfophenyl)-2H-tetrazolium, inner salt (MTS), and an electron coupling reagent, phenazine methosulfate (PMS). Absorbance at 490 nm (A490) was measured, and survival curves were obtained by comparison of A490 from treated cells with A490 from untreated cells (control). GI50 values were calculated from nonlinear curve fitting.

U251 = experiment: NCI 60-cell-line cancer screen, growth inhibition (SRB); format: cell-based
Protocol: (§2) Cell growth inhibition studies whose results are reported above were carried out at the National Cancer Institute essentially as follows. Cells grown in RPMI 1640 medium containing 5% fetal bovine serum and 2 mM L-glutamine were inoculated into 96-well microtiter plates, which were incubated for 24 hours prior to addition of CMAC-1 at five concentrations. After 48 hours, cold trichloroacetic acid was added, and the plates were washed and air dried. The cells were stained with sulforhodamine B (SRB), and the absorbance was read on an automated plate reader at a wavelength of 515 nm. The percentage growth was calculated at each of the drug concentrations. The growth inhibition of 50% (GI50) was then calculated. The GI50 is the drug concentration resulting in a 50% reduction in the net protein increase (as measured by SRB staining) in control cells during the drug incubation.

HT29 = experiment: as above; format: cell-based
Protocol: as §2

OVCAR-8 = experiment: as above; format: cell-based
Protocol: as §2

MCF7 = experiment: as above; format: cell-based
Protocol: as §2

SF-268 = experiment: as above; format: cell-based
Protocol: as §2

EKVX = experiment: as above; format: cell-based; settings: NSCLC EKVX, duplicate evaluations
Protocol: as §2

MALMI-3M = experiment: as above; format: cell-based; settings: Melanoma MALMI-3M, duplicate evaluations
Protocol: as §2

M14 = experiment: as above; format: cell-based; settings: Homo sapiens; Melanoma M14; 48 hours; duplicate evaluations
Protocol: as §2

CCRF-CEM = experiment: as above; format: cell-based; settings: Leukemia CCRF-CEM, duplicate evaluations
Protocol: as §2

K562 = experiment: as above; format: cell-based; settings: Homo sapiens
Protocol: as §2

SF-295 = experiment: as above; format: cell-based
Protocol: as §2

SW-620 = experiment: as above; format: cell-based; settings: Homo sapiens
Protocol: as §2

HCT-15 = experiment: as above; format: cell-based; settings: Homo sapiens
Protocol: as §2

HS 578T = experiment: as above; format: cell-based; settings: Breast HS 578T, duplicate evaluations
Protocol: as §2

OVCAR-3 = experiment: as above; format: cell-based
Protocol: as §2

NCI-H522 = experiment: as above; format: cell-based
Protocol: as §2

SNB-75 = experiment: as above; format: cell-based
Protocol: as §2

HOP-62 = experiment: as above; format: cell-based
Protocol: as §2

NCI-H460 = experiment: as above; format: cell-based
Protocol: as §2

UACC-257 = experiment: as above; format: cell-based
Protocol: as §2

SF-539 = experiment: as above; format: cell-based
Protocol: as §2

HL60-(TB) = experiment: as above; format: cell-based; settings: Homo sapiens
Protocol: as §2

NCI-H322M = experiment: as above; format: cell-based; settings: NSCLC NCI-H322M, duplicate evaluations
Protocol: as §2

MDA-MB-435 = experiment: as above; format: cell-based; settings: Homo sapiens
Protocol: as §2

NCI-H226 = experiment: as above; format: cell-based
Protocol: as §2

RPMI-8226 = experiment: as above; format: cell-based; settings: Homo sapiens
Protocol: as §2

SR = experiment: as above; format: cell-based; settings: Homo sapiens
Protocol: as §2

NCI/ADR-RES = experiment: as above; format: cell-based; settings: Breast NCI/ADR-RES, duplicate evaluations
Protocol: as §2

[1] = system: individual cell lines of ovarian cancer; experiment: NCI 60-cell-line panel, summary by cancer type; format: cell-based
Protocol: as §2

[2] = system: individual cell lines of non-small-cell lung cancer (NSCLC); experiment: NCI 60-cell-line panel, summary by cancer type; format: cell-based
Protocol: as §2

renal cancer = experiment: NCI 60-cell-line panel, summary by cancer type; format: cell-based
Protocol: as §2

Melanoma = experiment: NCI 60-cell-line panel, summary by cancer type; format: cell-based
Protocol: as §2

[3] = system: individual cell lines of prostate cancer; experiment: NCI 60-cell-line panel, summary by cancer type; format: cell-based
Protocol: as §2

[4] = system: individual cell lines of central nervous system (CNS) cancer; experiment: NCI 60-cell-line panel, summary by cancer type; format: cell-based
Protocol: as §2

[5] = system: BxPC-3 (pancreatic) cancer cells; experiment: Growth inhibition assay in pancreatic cancer cell lines (MTS); format: cell-based; settings: read-out: 50% growth inhibition (GI50)
Protocol: as §1

C/C=C/C(=O)SCC(=O)Oc1cc(/C=C/C(=O)c2cc(OC)c(OC)c(OC)c2)ccc1OC [CMAC-1, 3-[3-(crotonylsulfanylmethylcarbonyloxy)-4-methoxyphenyl]-1-(3,4,5-trimethoxyphenyl)propenone]
GI50 (MIA PaCa-2 cells; Homo sapiens, MIA PaCa-2 pancreatic cancer cells in culture, read-out: concentration required for 50% growth inhibition (GI50)): 0.016 µM
melting point: 123 to 125.5 °C
GI50 (U251; CNS U251, 48 hours, duplicate evaluations): 0.0521 µM
GI50 (U251; Homo sapiens, U-251, 48 h, CNS U251, duplicate evaluations): 0.0427 µM
GI50 (HT29; Colon HT29, 48 hours, duplicate evaluations): 1.68 µM
GI50 (HT29; Homo sapiens, HT-29, 48 h, Colon HT29, duplicate evaluations): 2.87 µM
GI50 (OVCAR-8; Homo sapiens, OVCAR-8, 48 h, Ovarian OVCAR-8, duplicate evaluations): 0.0439 µM
GI50 (OVCAR-8; Ovarian OVCAR-8, 48 hours, duplicate evaluations): 0.0471 µM
GI50 (MCF7; Breast MCF7, 48 hours, duplicate evaluations): 0.03 µM
GI50 (MCF7; Homo sapiens, MCF7, 48 h, Breast MCF7, duplicate evaluations): 0.0285 µM
GI50 (SF-268; CNS SF-268, 48 hours, duplicate evaluations): 0.0638 µM
GI50 (SF-268; Homo sapiens, SF-268, 48 h, CNS SF-268, duplicate evaluations): 0.0811 µM
GI50 (EKVX; Homo sapiens, EKVX, 48 h): 2.09 µM
GI50 (EKVX; 48 hours): 1.7 µM
GI50 (MALMI-3M; 48 h): 0.0742 µM
GI50 (MALMI-3M; 48 hours): 0.0447 µM
GI50 (M14): 0.0623 µM
GI50 (CCRF-CEM; Homo sapiens, CCRF-CEM, 48 h): 0.0716 µM
GI50 (CCRF-CEM; 48 hours): 0.086 µM
GI50 (K562; K562, leukemia K-562, Table 2): < 0.01 µM
GI50 (K562; Leukemia K562, 48 hours, duplicate evaluations): < 0.01 µM
GI50 (SF-295; CNS SF-295, 48 hours, duplicate evaluations): 0.231 µM
GI50 (SF-295; Homo sapiens, SF-295, 48 h, CNS SF-295, duplicate evaluations): 0.215 µM
GI50 (SW-620; Colon SW-620, 48 hours, duplicate evaluations): < 0.01 µM
GI50 (SW-620; colon SW-620, Table 2): < 0.01 µM
GI50 (HCT-15; Colon HCT-15, 48 hours, duplicate evaluations): < 0.01 µM
GI50 (HCT-15; colon HCT-15, Table 2): < 0.01 µM
GI50 (HS 578T; 48 hours): 0.0206 µM
GI50 (HS 578T; Homo sapiens, Hs-578T, 48 h): 0.0404 µM
GI50 (OVCAR-3; Homo sapiens, OVCAR-3, 48 h, Ovarian OVCAR-3, duplicate evaluations): 0.0116 µM
GI50 (OVCAR-3; Ovarian OVCAR-3, 48 hours, duplicate evaluations): < 0.01 µM
GI50 (NCI-H522; Homo sapiens, NCI-H522, 48 h, NSCLC NCI-H522, duplicate evaluations): 0.0224 µM
GI50 (NCI-H522; NSCLC NCI-H522, 48 hours, duplicate evaluations): 0.0158 µM
GI50 (SNB-75; CNS SNB-75, 48 hours, duplicate evaluations): < 0.01 µM
GI50 (SNB-75; Homo sapiens, SNB-75, 48 h, CNS SNB-75, duplicate evaluations): 0.0165 µM
GI50 (HOP-62; Homo sapiens, HOP-62, 48 h, NSCLC HOP-62, duplicate evaluations): 1.23 µM
GI50 (HOP-62; NSCLC HOP-62, 48 hours, duplicate evaluations): 1 µM
GI50 (NCI-H460; Homo sapiens, NCI-H460, 48 h, NSCLC NCI-H460, duplicate evaluations): 0.0524 µM
GI50 (NCI-H460; NSCLC NCI-H460, 48 hours, duplicate evaluations): 0.0335 µM
GI50 (UACC-257; Homo sapiens, UACC-257, 48 h, Melanoma UACC-257, duplicate evaluations): 3.58 µM
GI50 (UACC-257; Melanoma UACC-257, 48 hours, duplicate evaluations): 4.14 µM
GI50 (SF-539; CNS SF-539, 48 hours, duplicate evaluations): < 0.01 µM
GI50 (SF-539; Homo sapiens, 48 h, CNS SF-539, duplicate evaluations): 0.0164 µM
GI50 (HL60-(TB); HL-60, Leukemia HL60-(TB), 48 hours, duplicate evaluations): < 0.01 µM
GI50 (HL60-(TB); leukemia HL-60, Table 2): < 0.01 µM
GI50 (NCI-H322M; Homo sapiens, NCI-H322M, 48 h): 0.0851 µM
GI50 (NCI-H322M; 48 hours): 0.0703 µM
GI50 (MDA-MB-435; Breast MDA-MB-435, 48 hours, duplicate evaluations): < 0.01 µM
GI50 (MDA-MB-435; breast cancer cells MDA-MB-435, Table 2): < 0.01 µM
GI50 (NCI-H226; Homo sapiens, NCI-H226, 48 h, NSCLC NCI-H226, duplicate evaluations): 17.2 µM
GI50 (NCI-H226; NSCLC NCI-H226, 48 hours, duplicate evaluations): 11.2 µM
GI50 (RPMI-8226; Leukemia RPMI-8226, 48 hours, duplicate evaluations): < 0.01 µM
GI50 (RPMI-8226; leukemia RPMI-8226, Table 2): < 0.01 µM
GI50 (SR; Leukemia SR, 48 hours, duplicate evaluations): < 0.01 µM
GI50 (SR; leukemia SR, Table 2): < 0.01 µM
GI50 (NCI/ADR-RES; 48 hours): 0.0322 µM
GI50 (NCI/ADR-RES; Homo sapiens, NCI/ADR-RES, 48 h): 0.0262 µM
GI50 [1]: < 0.05 µM
GI50 [2]: < 0.05 µM
GI50 (renal cancer): < 0.15 µM
GI50 (Melanoma): < 0.075 µM
GI50 [3]: < 0.05 µM
GI50 [4]: < 0.05 µM

C/C=C/C(=O)SCC(=O)OCc1ccc(/C=C/C(=O)c2cc(OC)c(OC)c(OC)c2)o1 [CMAF-1, 3-[5-(crotonylsulfanylmethylcarbonyloxymethyl)-2-furyl]-1-(3,4,5-trimethoxyphenyl)propenone]
GI50 (MIA PaCa-2 cells; human pancreatic cancer cell (MIA PaCa-2) growth in culture, read-out: GI50): 17 µM

C=C(Cl)C(=O)Oc1cc(C=CC(=O)c2cc(OC)c(OC)c(OC)c2)ccc1OC [Entry 6, 3-[3-(2-Chloroacryloyloxy)-4-methoxyphenyl]-1-(3,4,5-trimethoxyphenyl)propenone]
GI50 [5]: 4.5 µM
GI50 (MIA PaCa-2 cells; MIA PaCa-2 pancreatic cancer cells in culture, read-out: concentration required for 50% growth inhibition (GI50)): 0.056 µM
